Here are results for 20 compounds from PubChem BioAssay AID256 (DTP/NCI, 2004).

Values joined by “and” are separate entries in the source; they are usually repeats but may differ in a detail not shown here. Equal values may be shown once. Inconclusive results and toxic doses are left out.

For this experiment, the system named is CD2F1 mice, L1210 leukemia ip, survival T/C. As to the kind of experiment: NCI In Vivo Anticancer Drug Screen. Data for tumor model L1210 Leukemia (intraperitoneal) in CD2F1 (CDF1) mice. As to conditions: endpoint: mean survival time, higher = longer survival. The gist of the method: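 Antitumor effect is scored in animals hosting a serially transplanted tumor. Values compare compound-dosed animals against vehicle-only controls as a simple quotient.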

Where [1] appears, read: dose: 100.0 mg/kg/injection, schedule: Q01DX001 (ip), vehicle: saline with Tween-80.
[2] abbreviates: dose: 100.0 mg/kg/injection, schedule: Q04DX003 (ip), vehicle: saline with Tween-80.
Where [3] appears, read: dose: 200.0 mg/kg/injection, schedule: Q04DX003 (ip), vehicle: saline with Tween-80.
[4] abbreviates: dose: 400.0 mg/kg/injection, schedule: Q01DX001 (ip), vehicle: saline with Tween-80.
[5] abbreviates: dose: 400.0 mg/kg/injection, schedule: Q04DX003 (ip), vehicle: saline with Tween-80.
[6] abbreviates: dose: 25.0 mg/kg/injection, schedule: Q04DX003 (ip), vehicle: saline with Tween-80.
The mark [7] stands for this setting: dose: 100.0 mg/kg/injection, schedule: Q04DX003 (ip), vehicle: saline.
Where [8] appears, read: dose: 200.0 mg/kg/injection, schedule: Q04DX003 (ip), vehicle: saline.
[9] abbreviates: dose: 100.0 mg/kg/injection, schedule: Q01DX001 (ip), vehicle: saline.
The mark [10] stands for this setting: dose: 200.0 mg/kg/injection, schedule: Q01DX001 (ip), vehicle: saline.
Setting [11] is: dose: 400.0 mg/kg/injection, schedule: Q01DX001 (ip), vehicle: saline.
The mark [12] stands for this setting: dose: 100.0 mg/kg/injection, schedule: Q01DX009 (ip), vehicle: saline with Tween-80.
Where [13] appears, read: dose: 200.0 mg/kg/injection, schedule: Q01DX009 (ip), vehicle: saline with Tween-80.
[14] abbreviates: dose: 25.0 mg/kg/injection, schedule: Q01DX009 (ip), vehicle: saline with Tween-80.
Where [15] appears, read: dose: 50.0 mg/kg/injection, schedule: Q01DX009 (ip), vehicle: saline with Tween-80.
The mark [16] stands for this setting: dose: 50.0 mg/kg/injection, schedule: Q04DX003 (ip), vehicle: saline with Tween-80.
The mark [17] stands for this setting: dose: 100.0 mg/kg/injection, schedule: Q04DX002 (ip), vehicle: saline with Tween-80.
[18] abbreviates: dose: 200.0 mg/kg/injection, schedule: Q04DX002 (ip), vehicle: saline with Tween-80.
The mark [19] stands for this setting: dose: 400.0 mg/kg/injection, schedule: Q04DX002 (ip), vehicle: saline with Tween-80.

For the compound `COc1ccc(O)c(CC(C)C)c1`, the T/C is 100 % of control (dose: 100.0 mg/kg/injection, schedule: Q01DX009 (ip), vehicle: acetone); 104 % of control (dose: 200.0 mg/kg/injection, schedule: Q01DX009 (ip), vehicle: acetone); 96 % of control (dose: 400.0 mg/kg/injection, schedule: Q01DX009 (ip), vehicle: acetone).
For the compound `Clc1ccccc1-c1nc2ccccc2s1`, the T/C is, setting by setting: under setting [1], 91 % of control; under setting [2], 97 % of control; (dose: 200.0 mg/kg/injection, schedule: Q01DX001 (ip), vehicle: saline with Tween-80) 91 % of control; under setting [3], 96 % of control; under setting [4], 91 % of control; under setting [5], 92 % of control.
Take `CCN(CC)CCOC(=O)c1ccc(NC(=O)COc2ccc3ccccc3c2)cc1`: the T/C by setting is: (dose: 12.5 mg/kg/injection, schedule: Q01DX009 (ip), vehicle: other) 98 % of control and 97 % of control; (dose: 25.0 mg/kg/injection, schedule: Q01DX009 (ip), vehicle: other) 97 % of control; (dose: 50.0 mg/kg/injection, schedule: Q01DX009 (ip), vehicle: other) 98 % of control and 93 % of control; (dose: 100.0 mg/kg/injection, schedule: Q01DX009 (ip), vehicle: other) 94 % of control and 93 % of control; (dose: 200.0 mg/kg/injection, schedule: Q01DX009 (ip), vehicle: other) 97 % of control and 93 % of control.
As to `C=CC[As](=O)(O)c1ccccc1Cl`, the T/C (dose: 6.25 mg/kg/injection, schedule: Q04DX003 (ip), vehicle: saline with Tween-80) is 98 % of control; the T/C (dose: 12.5 mg/kg/injection, schedule: Q04DX003 (ip), vehicle: saline with Tween-80) is 105 % of control; the T/C under setting [6] is 104 % of control.
Turning to `O=C1c2ccccc2CCC12OC2c1ccc(Cl)cc1` (configuration not stated), the T/C (dose: 50.0 mg/kg/injection, schedule: Q04DX003 (ip), vehicle: saline) is 106 % of control; the T/C under setting [7] was 101 % of control; the T/C under setting [8] was 101 % of control; the T/C (dose: 400.0 mg/kg/injection, schedule: Q04DX003 (ip), vehicle: saline) is 98 % of control.
Regarding `BrCCCCCCCCCCC1(c2ccccc2)OCCO1`, the T/C by setting is: (dose: 100.0 mg/kg/injection, schedule: Q04DX003 (ip), vehicle: Klucel (hydroxypropylcellulose) (HPC)) 90 % of control; (dose: 200.0 mg/kg/injection, schedule: Q04DX003 (ip), vehicle: Klucel (hydroxypropylcellulose) (HPC)) 94 % of control; (dose: 400.0 mg/kg/injection, schedule: Q04DX003 (ip), vehicle: Klucel (hydroxypropylcellulose) (HPC)) 95 % of control.
On to `COc1cc(-c2ccc(N=Nc3c(O)ccc4ccccc34)c(OC)c2)ccc1N=Nc1ccc2c(S(=O)(=O)O)cc(S(=O)(=O)O)c(N)c2c1O`, for which the T/C (dose: 50.0 mg/kg/injection, schedule: Q01DX001 (ip), vehicle: saline) is 91 % of control; the T/C under setting [9] is 94 % of control; the T/C under setting [7] was 94 % of control; the T/C under setting [10] was 88 % of control; the T/C under setting [8] is 95 % of control; the T/C under setting [11] was 94 % of control.
As to `Cc1nc2c(c(=O)[nH]1)C(c1ccccc1)C(C)(C)O2` (configuration not stated), the T/C is, setting by setting: under setting [12], 96 % of control; under setting [2], 93 % of control; under setting [13], 93 % of control; under setting [3], 96 % of control; (dose: 400.0 mg/kg/injection, schedule: Q01DX009 (ip), vehicle: saline with Tween-80) 93 % of control; under setting [5], 93 % of control.
In the case of `O=C(CNC(=O)Nc1cccc([N+](=O)[O-])c1)NNC(=O)Nc1ccccc1F`, the T/C under setting [12] is 88 % of control and the T/C under setting [13] is 88 % of control.
As for `c1ccc(OCCC[P+](c2ccccc2)(c2ccccc2)c2ccccc2)cc1`, the T/C is 105 % of control (dose: 10.0 mg/kg/injection, schedule: Q01DX009 (ip), vehicle: saline); 95 % of control (dose: 20.0 mg/kg/injection, schedule: Q01DX009 (ip), vehicle: saline); 95 % of control under setting [14]; 101 % of control under setting [6]; 113 % of control under setting [15]; 92 % of control under setting [16]. The T/C is, setting by setting: under setting [12], 111 % of control; under setting [2], 92 % of control.
Consider `CS(C)=O`, for which the T/C is, setting by setting: (dose: 46.87 mg/kg/injection, schedule: Q01DX009 (ip), vehicle: saline) 95 % of control; (dose: 93.75 mg/kg/injection, schedule: Q01DX009 (ip), vehicle: saline) 100 % of control and 103 % of control; (dose: 187.5 mg/kg/injection, schedule: Q01DX009 (ip), vehicle: saline) 100 % of control and 101 % of control; (dose: 375.0 mg/kg/injection, schedule: Q01DX009 (ip), vehicle: saline) 95 % of control and 100 % of control; (dose: 750.0 mg/kg/injection, schedule: Q01DX009 (ip), vehicle: saline) 97 % of control and 100 % of control; (dose: 1500.0 mg/kg/injection, schedule: Q01DX009 (ip), vehicle: saline) 100 % of control. For the same compound, the T/C is 87 % of control and 100 % of control (dose: 1.5 grams/kg/injection, schedule: Q01DX009 (ip), vehicle: saline); 95 % of control (dose: 3.0 grams/kg/injection, schedule: Q01DX009 (ip), vehicle: saline); 89 % of control and 100 % of control (dose: 6.0 grams/kg/injection, schedule: Q01DX009 (ip), vehicle: saline).
With `C#CCOCCC(C(=O)OCC)C(=O)OCC`, the T/C (dose: 100.0 mg/kg/injection, schedule: Q04DX003 (ip), vehicle: acetone) is 108 % of control; the T/C (dose: 200.0 mg/kg/injection, schedule: Q04DX003 (ip), vehicle: acetone) is 103 % of control; the T/C (dose: 400.0 mg/kg/injection, schedule: Q04DX003 (ip), vehicle: acetone) was 110 % of control.
Regarding `CC(=O)n1cc(F)c(=O)[nH]c1=O`, the T/C (dose: 16.5 mg/kg/injection, schedule: Q01DX009 (ip), vehicle: saline) is 172 % of control; the T/C under setting [14] is 169 % of control; the T/C under setting [15] is 105 % of control.
As to `COc1cc(C=Nc2ccc(-n3ccnc3C)cc2)ccc1N(CCCl)CCCl`, the T/C is, setting by setting: (dose: 2.5 mg/kg/injection, schedule: Q01DX009 (ip), vehicle: saline with Tween-80) 98 % of control; (dose: 5.0 mg/kg/injection, schedule: Q01DX009 (ip), vehicle: saline with Tween-80) 113 % of control; (dose: 10.0 mg/kg/injection, schedule: Q01DX009 (ip), vehicle: saline with Tween-80) 112 % of control; (dose: 20.0 mg/kg/injection, schedule: Q01DX009 (ip), vehicle: saline with Tween-80) 117 % of control.
For `Cn1c(-c2ccccc2)nc2c(N)ncnc21`, the T/C by setting is: under setting [1], 93 % of control; under setting [4], 87 % of control.
Regarding `COc1ccc(C(C)O)cc1` (configuration not stated), the T/C was 104 % of control under setting [17], 93 % of control under setting [18] and 97 % of control under setting [19].
On to `CCOC(=O)/C=C1/C=C(C)CC(C)(C)C1` (tested in a mixture with another compound), for which the T/C reads like this: under setting [17], 98 % of control; under setting [18], 91 % of control; under setting [19], 87 % of control.
For the compound `[N-]=[N+]=CC(=O)c1c(Cl)n(-c2ccccc2)c2ccccc12`, the T/C is 90 % of control under setting [16], 98 % of control under setting [2] and 101 % of control under setting [3].
Consider `COc1cccc2c1CCC13OC(O)CC21CCCC3C#N` (configuration not stated), for which the T/C reads like this: under setting [9], 95 % of control; under setting [10], 95 % of control; under setting [11], 90 % of control.
In the case of `C[n+]1ccc(/C=C\c2ccc(N(CCCl)CCCl)cc2)c2ccccc21`, the T/C runs as follows: (dose: 6.25 mg/kg/injection, schedule: Q01DX009 (ip), vehicle: Klucel (hydroxypropylcellulose) (HPC)) 98 % of control; (dose: 12.5 mg/kg/injection, schedule: Q01DX009 (ip), vehicle: Klucel (hydroxypropylcellulose) (HPC)) 101 % of control; (dose: 25.0 mg/kg/injection, schedule: Q01DX009 (ip), vehicle: Klucel (hydroxypropylcellulose) (HPC)) 112 % of control.
